Several values for one entry are separate records, joined by “and”; a condition that tells them apart may be missing. Equal entries are not always repeated.
Experiments:
[1] = tested on: high cardiovascular risk patients with hypercholesterolemia; experiment: ODYSSEY LONG TERM: lipid efficacy of alirocumab 150 mg Q2W vs placebo; format: in vivo, human
Protocol: Patients were stratified according to heFH population, prior history of MI or ischemic stroke, statin treatment and geographic region. Patients at high cardiovascular risk were defined as 1) having heFH (who may or may not have CHD/CHD risk equivalents) or 2) no prior diagnosis of heFH but having hypercholesterolemia together with established CHD or CHD risk equivalents.
Primary analyses of efficacy endpoints were conducted using an ITT approach (based on the ITT population defined above), including all lipid data, regardless of whether the patient was continuing therapy or not. This corresponds to ITT estimands, defined for primary and key secondary endpoints. In addition, analyses were also conducted using an on-treatment approach (based on the mITT population defined above), including lipid data collected during the efficacy treatment period. This corresponds to on-treatment estimands of key secondary endpoints.
With regards to the primary efficacy analysis (ITT approach), the percent change in calculated LDL-C from baseline to Week 24 was analyzed using a mixed-effect model with repeated measures (MMRM) approach. All post-baseline data available from Week 4 to Week 52 analysis windows were used and missing data were accounted for by the MMRM. […] This model provided baseline adjusted least-squares means (LSmeans) estimates at Week 24 for both treatment groups with their corresponding SEs and 95% confidence intervals.
Continuous secondary variables anticipated to have a normal distribution (i.e., lipids other than TGs and Lp(a)) were analyzed using the same MMRM model as for the primary endpoint. […] Combined estimate for mean in both treatment groups, as well as the differences of these estimates, with their corresponding SEs, 95% Cls and p-value were provided (through SAS MIANALYZE procedure).
Binary secondary efficacy endpoints were analyzed using multiple imputation approach for handling of missing values followed by stratified logistic regression with treatment group as main effect and corresponding baseline value(s) as covariate, stratified by randomization factors (as per IVRS). Combined estimates of odds ratio versus placebo, 95% CI, and p-value were provided (through SAS MIANALYZE procedure).

[2] = tested on: high cardiovascular risk patients with hypercholesterolemia; experiment: ODYSSEY LONG TERM: ophthalmologic sub-study; format: in vivo, human; conditions: including the ophthalmological sub-study
Description: Patients underwent ophthalmologic assessments by ophthalmologists/optometrists at the screening period. If the patients were deemed eligible for the main study trial and fulfilled the additional eligibility criteria for the sub-study, then the patients underwent ophthalmologic assessments every 6 months during the 18-month double-blind treatment period
The primary endpoint was adverse events related to ophthalmologic abnormalities (using SMQ “optic nerve disorders”, “retinal disorders” and “corneal disorders”) over the study duration.

[3] = tested on: high cardiovascular risk patients with hypercholesterolemia; conditions: in vivo
Protocol: Safety was assessed through adverse event (AE) reporting (including adjudicated cardiovascular events), laboratory analyses, and vital signs measurement. Since the LDL-C-lowering effects of PCSK9 inhibition on top of a statin are unknown, a number of AEs were defined as being of special interest and were monitored, including alanine aminotransferase abnormalities, allergic events, hemolytic anemia, pregnancy, overdose with study drug, neurologic events, ophthalmic events, and local injection site reactions. AEs were determined to be of special interest based on review of previous clinical trials, correspondence with regulatory authorities and the Data Monitoring Committee, the use of a monoclonal antibody in this study, and the route of drug administration.
AEs (including adjudicated cardiovascular events), laboratory parameters, and vital signs were reported descriptively, based on the safety population (all randomized patients who received at least 1 dose or partial dose of study treatment). The safety analysis focused on the treatment-emergent AE period defined as the time from the first double-blind dose to the last double-blind dose of the investigational product +70 days (10 weeks).
(§1) The safety population included all randomized patients who received at least one dose or part of a dose of the double-blind IMP.
Safety analyses were descriptive, performed on the safety population according to treatment actually received. For analysis of TEAE and PCSA, the safety analysis focused on the TEAE period defined as the time from the first dose of double-blind IMP up to 70 days after the last double-blind injection.

[4] = tested on: high cardiovascular risk patients with hypercholesterolemia; conditions: in vivo; remark: listed apart in the source
Protocol: Safety assessments during both studies were as follows. Safety was assessed through adverse event (AE) reporting (including adjudicated cardiovascular events), laboratory analyses, and vital signs measurement. Since the LDL-C-lowering effects of PCSK9 inhibition on top of a statin are unknown, a number of AEs were defined as being of special interest and were monitored, including alanine aminotransferase abnormalities, allergic events, hemolytic anemia, pregnancy, overdose with study drug, neurologic events, ophthalmic events, and local injection site reactions.
Safety Analyses were as follows. AEs (including adjudicated cardiovascular events), laboratory parameters, and vital signs were reported descriptively, based on the safety population (all randomized patients who received at least 1 dose or partial dose of study treatment). The safety analysis focused on the treatment-emergent AE period defined as the time from the first double-blind dose to the last double-blind dose of the investigational product +70 days (10 weeks).
as §1
Safety analyses were descriptive, performed on the safety population according to treatment actually received. For analysis of TEAE and PCSA, the safety analysis focused on the TEAE period defined as the time from the first dose of double-blind IMP administration (capsule or injection, whichever comes first) up to 70 days after the last double-blind injection.

[5] = tested on: high cardiovascular risk patients with hypercholesterolemia; experiment: ODYSSEY LONG TERM: lipid efficacy of alirocumab 150 mg Q2W vs placebo; format: in vivo, human; conditions: intention-to-treat, Week 78 (final analysis)
[6] = Week 24, total PCSK9 levels at or above the median
[7] = Week 24, total PCSK9 levels below the median
[8] = Week 24, ITT population, MMRM, alirocumab 150 Q2W
[9] = subgroup baseline HDL-C <40 mg/dL/<1.04 mmol/L, ITT
[10] = subgroup baseline HDL-C ≧40 mg/dL/≧1.04 mmol/L, ITT
[11] = subgroup baseline calculated LDL-C <100 mg/dL/<2.59 mmol/L, ITT
[12] = subgroup baseline calculated LDL-C ≧160 mg/dL/≧4.14 mmol/L, ITT
[13] = subgroup baseline calculated LDL-C ≧100 to <130 mg/dL/≧2.59 to <3.37 mmol/L, ITT
[14] = subgroup baseline calculated LDL-C ≧130 to <160 mg/dL/≧3.37 to <4.14 mmol/L, ITT

Question: For “Alirocumab: human anti-PCSK9 antibody; HCVR SEQ ID NO:1, LCVR SEQ ID NO:6; CDRs SEQ ID NOs 2/3/4/7/8/10”, which “Calculated LDL-C percent change, treatment effect versus placebo” value ([1]; Week 24, patients with baseline LDL-C <100 mg/dL) is on record?
Answer: The value was −75.0%.

Question: What about the “Calculated LDL-C percent change, treatment effect versus placebo” value ([1]; Week 24, patients with baseline LDL-C ≧160 mg/dL) of the same substance?
Answer: The value was −41.3%.

Question: And the “Calculated LDL-C percent change, LS mean difference vs placebo” value [1, 6]?
Answer: The value was −66.0%.

Question: What about the “Calculated LDL-C, LS mean percent change from baseline” value [1, 6] of the same substance?
Answer: The value was −62.1%.

Question: And the “Calculated LDL-C percent change, LS mean difference vs placebo” value [1, 7]?
Answer: The value was −57.3%.

Question: What about the “Calculated LDL-C, LS mean percent change from baseline” value [1, 7] of the same substance?
Answer: The value was −60.1%.

Question: And the “Calculated LDL-C percent change, LS mean difference vs placebo” value ([1]; Week 24, women)?
Answer: Its value is −56.6%.

Question: And the “Calculated LDL-C, LS mean percent change from baseline” value ([1]; Week 24, women)?
Answer: The value was −53.4%.

Question: What about the “Apo A1, LS mean (SE) change from baseline to Week 24 (%)” value ([1]; Week 24, ITT population) of the same substance?
Answer: The value was 4.0 (0.4) %.

Question: What about the “Apo B, LS mean (SE) change from baseline to Week 24 (%)” value ([1]; Week 24, ITT population) of the same substance?
Answer: The value was −52.8 (0.7) %.

Question: And the “Fasting triglycerides, combined estimate for adjusted mean (SE) change from baseline to Week 24 (%)” value ([1]; Week 24, ITT population)?
Answer: The value was −15.6 (0.8) %.

Question: What about the “HDL-C, LS mean (SE) change from baseline to Week 24 (%)” value ([1]; Week 24, ITT population) of the same substance?
Answer: Its value is 4.0 (0.4) %.

Question: What about the “Lipoprotein (a), combined estimate for adjusted mean (SE) change from baseline to Week 24 (%)” value ([1]; Week 24, ITT population) of the same substance?
Answer: Its value is −29.3 (0.7) %.

Question: And the “Non-HDL-C, LS mean (SE) change from baseline to Week 24 (%)” value ([1]; Week 24, ITT population)?
Answer: Its value is −51.6 (0.6) %.

Question: And the “Proportion (%) of patients reaching calculated LDL-C levels at Week 24: <70 mg/dL (regardless of risk)” value ([1]; Week 24, ITT population)?
Answer: Its value is 79.3%.

Question: And the “Proportion (%) of patients reaching calculated LDL-C levels at Week 24: <70 mg/dL (very high risk) or <100 mg/dL (high risk)” value ([1]; Week 24, ITT population)?
Answer: Its value is 80.7%.

Question: And the “Total cholesterol, LS mean (SE) change from baseline to Week 24 (%)” value ([1]; Week 24, ITT population)?
Answer: Its value is −37.8 (0.5) %.

Question: And the “Calculated LDL-C Week 24 percent change from baseline, LS mean difference (SE) vs placebo” value ([1]; Week 24, ITT population, MMRM)?
Answer: Its value is −61.9 (1.3) %.

Question: And the “Calculated LDL-C percent change from baseline, LS mean (SE)” value (“Calculated LDL-C percent change … (SE)” below) [1, 8]?
Answer: The value was −61.0 (0.7) % and −61.0%.

Question: And the “Calculated LDL-C value (absolute level), LS mean (SE)” value [1, 8]?
Answer: Its value is 48.3 (0.9) mg/dL.

Question: What about the “Calculated LDL-C value, LS mean (SE)” value [1, 8] of the same substance?
Answer: The value was 1.252 mmol/L.

Question: And the “LS mean (SE) change from baseline to Week 24 in measured LDL-C” value ([1]; Week 24, ITT, LDL-cholesterol measured by beta-quantification)?
Answer: The value was −57.8 (0.8) %.

Question: What about the “Apo-B - Percent change from baseline to Week 24, LS mean difference vs. placebo” value ([1]; Week 24, On-treatment) of the same substance?
Answer: The value was “placebo of −55.5%”.

Question: And the “Calculated LDL-C - Percent change from baseline to Week 24, LS mean difference vs. placebo” value ([1]; Week 24, On-treatment)?
Answer: The value was “placebo of −63.5%”.

Question: What about the “Non-HDL-C - Percent change from baseline to Week 24, LS mean difference vs. placebo” value ([1]; Week 24, On-treatment) of the same substance?
Answer: Its value is “placebo of −53.7%”.

Question: And the “LS mean absolute LDL-C reduction” value ([1]; Week 24, subgroup baseline calculated LDL-C <100 mg/dL/<2.59 mmol/L, ITT)?
Answer: The value was -51.6 mg/dL.

Question: What about the “LS mean absolute LDL-C reduction” value ([1]; Week 24, subgroup baseline calculated LDL-C ≧160 mg/dL/≧4.14 mmol/L, ITT) of the same substance?
Answer: Its value is -115.8 mg/dL.

Question: And the “LS mean absolute LDL-C reduction” value ([1]; Week 24, subgroup baseline calculated LDL-C ≧100 to <130 mg/dL/≧2.59 to <3.37 mmol/L, ITT)?
Answer: Its value is -71.2 mg/dL.

Question: And the “LS mean absolute LDL-C reduction” value ([1]; Week 24, subgroup baseline calculated LDL-C ≧130 to <160 mg/dL/≧3.37 to <4.14 mmol/L, ITT)?
Answer: The value was -85.3 mg/dL.

Question: And the “Calculated LDL-C percent change … (SE)” value ([1]; Week 36, ITT population, MMRM, alirocumab 150 Q2W)?
Answer: The value was −59.5%.

Question: What about the “Calculated LDL-C percent change … (SE)” value ([1]; Week 52, ITT population, MMRM, alirocumab 150 Q2W) of the same substance?
Answer: Its value is −56.8%.

Question: And the “Additional LDL-C reduction from baseline versus placebo” value ([1]; Week 78)?
Answer: Its value is 56%.

Question: And the “Percentage change from baseline to Week 78 in calculated LDL-C” value ([1]; Week 78, ITT population)?
Answer: The value was −52.4 (0.9) %.

Question: What about the “Percentage change from baseline to Week 78 in calculated LDL-C, LS mean difference (SE) vs placebo” value ([1]; Week 78, ITT population) of the same substance?
Answer: The value was −56.0 (1.6) %.

Question: And the “Percent decrease in LDL cholesterol” value ([1]; intention-to-treat, Week 24 (final analysis))?
Answer: Its value is 61%.

Question: And the “Percent change from baseline in calculated LDL-C at week 24, LS mean difference (SE) vs placebo” value [1, 9]?
Answer: Its value is −66.1 (2.8) %.

Question: And the “Percent change from baseline in calculated LDL-C at week 24, LS means (SE)” value [1, 9]?
Answer: Its value is −65.5 (1.6) %.

Question: And the “Percent change from baseline in calculated LDL-C at week 24, LS mean difference (SE) vs placebo” value [1, 10]?
Answer: Its value is −60.8 (1.4) %.

Question: What about the “Percent change from baseline in calculated LDL-C at week 24, LS means (SE)” value [1, 10] of the same substance?
Answer: Its value is −59.9 (0.8) %.

Question: What about the “Percent change from baseline in calculated LDL-C at week 24, LS mean difference (SE) vs placebo” value [1, 11] of the same substance?
Answer: The value was −75.0 (2.2) %.

Question: What about the “Percent change from baseline in calculated LDL-C at week 24, LS means (SE)” value [1, 11] of the same substance?
Answer: Its value is −61.3 (1.3) %.

Question: What about the “Percent change from baseline in calculated LDL-C at week 24, LS mean difference (SE) vs placebo” value [1, 12] of the same substance?
Answer: The value was −41.3 (3.3) %.

Question: What about the “Percent change from baseline in calculated LDL-C at week 24, LS means (SE)” value [1, 12] of the same substance?
Answer: Its value is −59.5 (1.9) %.

Question: And the “Percent change from baseline in calculated LDL-C at week 24, LS mean difference (SE) vs placebo” value [1, 13]?
Answer: Its value is −62.5 (2.0) %.

Question: What about the “Percent change from baseline in calculated LDL-C at week 24, LS means (SE)” value [1, 13] of the same substance?
Answer: The value was −62.0 (1.2) %.

Question: What about the “Percent change from baseline in calculated LDL-C at week 24, LS mean difference (SE) vs placebo” value [1, 14] of the same substance?
Answer: Its value is −54.6 (2.9) %.

Question: What about the “Percent change from baseline in calculated LDL-C at week 24, LS means (SE)” value [1, 14] of the same substance?
Answer: Its value is −59.8 (1.7) %.

Question: And the “TEAEs related to ophthalmological events” value [2]?
Answer: Its value is “no particular signal was detected”.

Question: And the “SOC infections and infestations” value [3]?
Answer: The value was 37.2%.

Question: What about the “Urinary tract infection (TEAE preferred term)” value [3] of the same substance?
Answer: Its value is 13 (6.3) No. (%) of patients.

Question: What about the “TEAE preferred term: Upper respiratory tract infection” value [4] of the same substance?
Answer: Its value is 31 (6.5).

Question: What about the “TEAE system organ class: Infections and infestations” value [4] of the same substance?
Answer: Its value is 130 (27.1).

Question: What about the “Percent decrease in LDL cholesterol” value [5] of the same substance?
Answer: Its value is 52%.

— US20160137746A1, “METHODS FOR TREATING HIGH CARDIOVASCULAR RISK PATIENTS WITH HYPERCHOLESTEROLEMIA” (Sanofi Biotechnology, priority 2014, published 2016)
